Test results as given in US9637451B2, “Indole compound” (ASTELLAS PHARMA INC., priority 2014, dated 2017).

Legend:
[1] = biological target: T1, human MT2 receptor (Homo sapiens, UniProt P49286); experiment: Activation of human MT2 receptor in receptor-expressing cells, intracellular Ca2+ by FLIPR; assay type: cell-based
T1 construct: expressed in transfected cells
T1 sequence (P49286 1-362): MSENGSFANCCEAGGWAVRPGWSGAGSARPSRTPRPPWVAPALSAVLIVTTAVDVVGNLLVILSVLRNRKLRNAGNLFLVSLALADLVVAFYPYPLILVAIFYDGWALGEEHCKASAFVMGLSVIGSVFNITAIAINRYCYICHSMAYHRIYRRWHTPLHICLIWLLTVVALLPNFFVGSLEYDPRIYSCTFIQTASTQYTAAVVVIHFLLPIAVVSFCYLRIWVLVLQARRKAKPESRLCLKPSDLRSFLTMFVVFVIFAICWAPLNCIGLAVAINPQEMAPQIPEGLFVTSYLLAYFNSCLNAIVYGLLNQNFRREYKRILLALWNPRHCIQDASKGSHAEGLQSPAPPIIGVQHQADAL

[2] = system: SD female rats; experiment: Effect of test compound on urethral pressure in anesthetized rats; assay type: in vivo, rat; conditions: dose of 0.01 mg/kg
Description: SD female rats were anesthetized with urethane and subjected to laparotomy. Then, the bladder apex was incised and a catheter was inserted from the bladder apex. Further, the catheter tip was ligated and fixed to be located in the proximal urethra portion. The catheter was connected to a pressure transducer and an infusion pump. Further, a catheter for administrating the compound was fitted into the femoral vein. Physiological saline was continuously infused into the urethra and the perfusion pressure in the urethra was measured. After the urethral pressure was stabilized, the test compound that had been dissolved in physiological saline, or physiological saline including 5% dimethylacetamide and 0.5% Cremophor was administered intravenously at 0.01 mg/kg or 0.1 mg/kg, and a change in urethral pressures was measured.
Further, the results of administering an active metabolite of midodrine (ST-1059: purchased from CHEMIZON) (J. Urology, 118, 980-982 (1977)) which is an α1 adrenoceptor agonist and is confirmed to have a clinical effect on stress urinary incontinence at doses, 0.01 mg/kg and, 0.1 mg/kg in rats, presumed to correspond to the clinical doses are referenced and shown in the Tables below.
The increment value in the urethral pressures of ramelteon and the Example compounds of the present invention at the time of administration are shown in Table 3. Ex represents Example No. of the test compound and N.T represents Not Tested.

[3] = CSF-to-plasma unbound concentration ratio in rat after intravenous administration; assay type: in vivo; conditions: CSF and plasma (unbound), iv, 15 minutes after intravenous administration, fp by ultracentrifugation method
Description: A test compound (100 μg/mL, 50% acetonitrile solution) at 1% (v/v) with respect to the amount of the plasma was added to rat plasma, and dispensed to a sample for a supernatant and a sample for the plasma. The sample for a supernatant was ultracentrifuged at 436,000×g and 37° C. for 140 minutes, and the sample for the plasma was incubated at 37° C. for 140 minutes.
After 140 minutes, the sample for a supernatant after the ultracentrifugation and the sample for the plasma were taken, and mixed with the blank plasma or the blank supernatant, respectively. Acetonitrile including an internal standard material was added to each of the samples with the removal of protein, and after the centrifugation at 2150×g and 4° C. for 10 minutes the supernatant was injected into LC-MS/MS.
The unbound fraction in the plasma was calculated by the following equation.
To the plasma of a rat was added a test compound (0.2 mM, 50% acetonitrile solution) in an amount corresponding to 1% (v/v) of the plasma amount, and 200 μL of obtained plasma sample was filled into a plasma chamber of a RED device insert. A buffer chamber was filled with 350 μL of PBS, followed by performing equilibrium dialysis by stirring in a CO2 incubator at 37° C. for 16 hours. The sample after the completion of the equilibrium dialysis was recovered and the volume of the plasma sample was measured. To the plasma sample after the completion of the equilibrium dialysis were added PBS, a 20 mM ammonium formate buffer, and acetonitrile including an internal standard material. Similarly, to the PBS sample after the completion of the equilibrium dialysis was added a blank plasma, a 20 mM ammonium formate buffer, and acetonitrile including an internal standard material. This sample was left to stand at 4° C. for 30 minutes and then centrifuged 1500×g for 10 minutes, and the supernatant was measured by LC-MS/MS. The unbound fraction in the plasma was calculated by the following equation. fp=Cf/{(Cp−Cf)(V/V0)+Cf}
At 15 minutes after intravenously administration of the test compound to the rats, the plasma and CSF were collected. A 50% acetonitrile solution and an acetonitrile including internal standard material were added to the collected plasma or CSF. After centrifuging this sample at 4° C. and 2150×g for 10 minutes, the supernatant was measured by LC-MS/MS, and the total concentration of the test compound in the plasma (Cplasma,t) and the concentration of the test compound in CSF (CCSF) were obtained. The unbound concentration in the plasma (Cplasma,u) of the test compound and the CSF-to-plasma unbound concentration ratio (Kp,uu,CSF) of the test compound was calculated by the following equation.
The Kp,uu,CSF values and the Kp,brain values of ramelteon and some Example compounds of the present invention are shown in Table 4. Ex represents Example No. of the test compound. Unless otherwise specified, the Kp,uu,CSF was calculated using the fp values determined by an ultracentrifugation method. Further, N.T. represents Not Tested.
(Ramelteon represents the values of Kp,uu,CSF after 10 minutes after the intravenous administration. Further, the Kp,uu,CSF of Examples 37 and 38 was calculated using the fp values determined by an equilibrium dialysis method. In addition, N.D. denotes the concentration of the test compound in CSF that is no higher than the detection limit.)

EC50 ([1]; HEK293 cells stably expressing human MT2 and Gq/i chimeric G protein, Ca2+ FLIPR): 10 nM
Emax ([1]; maximum reaction by ramelteon taken as 100%): 119%
Kp uu at 0.25 h [3]: 0.06
SMILES: CC(=O)NCCc1c[nH]c2cc(F)c(OCCOc3ccn(C)n3)cc12 [Example 6, N-[2-(6-fluoro-5-{2-[(1-methyl-1H-pyrazol-3-yl)oxy]ethoxy}-1H-indol-3-yl)ethyl]acetamide]
urethral pressure increasing action [2]: good urethral pressure increasing action
